Results published in publication PMC12067741, “Inhibition of SOD1 trimerization is a novel drug target for ALS disease” (Translational Neurodegeneration, 2025).

Columns and labels:
[1] = Plasma stability; format: in vitro ADME; details: CD-1 mouse plasma, after 120 min of incubation
[2] = system: SOD1^G93A−Tg mice; assay: Efficacy of i.p. injection in SOD1G93A-Tg ALS mice; format: in vivo; details: for reduction of rotarod latency to fall at 16 weeks compared to 11 weeks: vehicle ~43%
Experimental: To evaluate the therapeutic effect of PRG-A-04, SOD1^G93A−Tg mice received intraperitoneal injection of vehicle (DMSO, n = 6) or PRG-A-04 (20 mg/kg, n = 4; 50 mg/kg, n = 6) twice per week from 11 weeks for 6–8 weeks. WT mice (n = 5) served as negative littermates of the SOD1^G93A−Tg mice. WT mice were treated in the same conditions.
For histology analysis, SOD1^G93A−Tg mice received intraperitoneal injections starting from 11 weeks and sacrificed at 17 weeks (vehicle, n = 3; PRG-A-04 20 mg/kg, n = 2, 50 mg/kg, n = 2) and 19 weeks (vehicle, n = 2; PRG-A-04 50 mg/kg, n = 2). WT male mice (n = 5) were sacrificed at 17 weeks. Mice were sacrificed by i.p. (intraperitoneal) injection of avertin at a volume of 150–200 μL. The spinal cord was obtained and fixed in 4% paraformaldehyde for 48 h and embedded in paraffin blocks. The embedded tissues (cervical region of the spinal cord) were sectioned at 5 µm by Accu-Cut ® SRMTM 200 Rotary Microtome (Sakura Finetek, Torrance, CA) and transferred onto adhesive-coated slides (Marienfeld Laboratory Glassware, Lauda-Königshofen, Germany). After deparaffin and rehydration, the slides were stained with hematoxylin and eosin (H&E) to detect spinal cord neurons. In addition, immunohistochemistry (IHC) with antibodies for neuronal markers MAP2 (ab32454, Abcam, Cambridge, UK) and NeuN (ab177487, Abcam) as well as for SOD1 (GTX100554, Genetex, Irvine, CA) was performed. The intensity of MAP2 and NeuN was calculated with the Image J software (version 1.54p, National Institute of Mental Health, MD). For counting intensity, IHC images were divided using the “color deconvolution” function in Image J software and the DAB signal was quantified.
Age-matched WT mice were tested as positive control. […] Mouse movement was recorded.
PRG-A-04 (20 mg/kg or 50 mg/kg) was injected intraperitoneally (i.p., twice a week) in 11-week-old SOD1^G93A−Tg mice to verify its efficacy in vivo (Fig. S4a). […] We performed the rotarod test to monitor muscle strength.
11 weeks old mice were injected with 20 mg/kg and 50 mg/kg, twice per week for 6~8 weeks and checked the motility with rotarod test. To check the histology analysis, some mouse groups were sacrificed and the spinal cord was isolated at 16 weeks and 18 weeks. b, […]
(d) The 11 weeks old mice were injected with PRG-A-04 for 6 weeks and sacrificed at 16 weeks. The cervical spinal cord was stained with H&E. Scale bar; […]. (e) Representative images […]
The tissue lysates were harvest with TNNI buffer and incubation for 30 min then fixed with 0.04% glutaraldehyde (Glu) for 30min. Samples were separated using SDS-PAGE. Arrow indicates human SOD1(hSOD1- […]
MAP2 (e) and the number of NeuN positive cells (f) were counted with Image J software.

[3] = system: misfolded MT-SOD1; assay: Dot blot with misfolded SOD1-specific antibody; format: cell-based; details: 24 h treatment
Experimental: To detect misfolded SOD1 expression, cells transfected with SOD1 vectors were treated with PRG-A-04 for 24 h. After incubation, cells were lysed with […] NN buffer (50 mmol/L Tris–Cl, pH 7.5, 150 mmol/L NaCl, 0.3% NP-40), and then cell lysates were immobilized on nitrocellulose membrane using the Bio-Dot SF Microfiltration apparatus (Bio-Rad Laboratories, Hercules, CA). The membrane was washed with TBS and blocked by 5% BSA to remove background for 1 h. After blocking, the membrane was incubated with antibody for misfolded SOD1 (1:2000) or actin (1:10,000 in 1% skim milk containing TBST) for 30 min, then reacted with secondary antibody (goat anti-mouse IgG-horseradish peroxidase, 1:50,000 in 1% skim milk blocking buffer) for 30 min. Proteins were detected with ECL and X-ray film exposure. Actin was used as the loading control.

[4] = biological target: T1, SOD1-G147P (Homo sapiens, UniProt P00441, G148P); assay: SOD1 oligomerization induced by trimer stabilizer overexpression; format: cell-based
T1 construct: expressed in transfected cells
Experimental: For SDS-PAGE, proteins were extracted from cells with the RIPA buffer (50 mmol/L Tris–Cl, pH 7.5, 150 mmol/L NaCl, 1% NP-40, 0.1% SDS and […]). To detect the oligomer status, the cells were harvested with the TNNI buffer (50 mmol/L Tris–Cl, pH 7.5, 150 mmol/L NaCl, 0.3% NP-40, 100 mmol/L iodoacetamide, protease inhibitor cocktails) and reacted with 0.04% glutaraldehyde (Glu) for 30 min, and then SDS-PAGE was performed using the pan-SOD1 antibody. Samples were separated via SDS-PAGE and transferred to PVDF membrane. Blotted membranes were blocked by 3% skim milk containing TBST buffer for 1 h and incubated with specific antibodies. The following primary antibodies were used: pan-SOD1 (GTX100554) from Genetex (Irvine, CA); misfolded SOD1-specific antibody (B8H10) from MediMabs (Montreal, Canada); Actin (sc-1616), GST (sc-138), and GFP (Green fluorescent protein; sc-8036) antibodies from Santa Cruz Biotechnology (Santa Cruz, CA); TDP-43 antibody (10782–2-AP) from Proteintech (Rosemont, IL); anti-FLAG (Sigma; F3165) from Sigma-Aldrich (St. Louis, MO). HRP-conjugated goat anti-mouse, goat anti-rabbit and mouse anti-goat antibodies (Pierce, Thermo Fisher Scientific, Inc., Rockford, IL) were used as secondary antibodies. The blots were detected using an ECL assay (Advansta) and images were acquired using the […] ImageQuant 800 (Cytiva) system and an X-Ray film detector. […]

T1 sequence (P00441 whole entry G148P): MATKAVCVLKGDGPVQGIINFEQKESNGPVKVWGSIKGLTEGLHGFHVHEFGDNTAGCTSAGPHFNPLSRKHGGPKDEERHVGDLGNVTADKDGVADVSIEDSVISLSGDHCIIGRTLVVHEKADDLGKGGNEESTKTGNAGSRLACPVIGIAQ

## COc1cc(C=CCOC2Cc3cc4ccc(=O)oc4cc3OC2(C)C)ccc1[N+](=O)[O-] (stereo not shown) [PRG-A-04]
[1]
  stability in plasma: stable
[2]; i.p. 20 mg/kg twice a week from 11 weeks (first of 'respectively')
  reduction of rotarod latency to fall at 16 weeks compared to 11 weeks: 14.4%
[2]; i.p. 50 mg/kg twice a week from 11 weeks (second of 'respectively')
  reduction of rotarod latency to fall at 16 weeks compared to 11 weeks: 20.1%
[2]; i.p. 50 mg/kg, age of 18 weeks
  motor function in open field test: significantly improved motor function
[2]; i.p. 20 and 50 mg/kg, immunohistochemistry
  SOD1 inclusion bodies in spinal cord: reduced SOD1 inclusion bodies
[2]; i.p. 20 or 50 mg/kg twice a week
  toxicity regarding body weight loss: no cytotoxicity regarding body weight loss
[2]; i.p., histology at 16 weeks, versus vehicle
  number of neurons in cervical region of the spinal cord: increased the number of neurons
[2]; i.p., western blotting of cervical spinal cord lysates
  insolubility and oligomerization of SOD1 in spinal cord: decrease of insolubility and oligomerization of SOD1
[3]
  effect on misfolding SOD1: reduction in misfolding SOD1
[4]
  effect on SOD1 oligomerization caused by trimer-stabilizing mutant: reduced the SOD1 oligomerization
